Entries after “also recorded” stand apart in the source; their conditions may differ. Read-outs that look alike come from different tables or passages of the source.
How the values were obtained:
[1] = target: T1, portion of the ER containing the estradiol binding site (Homo sapiens, UniProt P03372); experiment: Electrophoretic gel mobility shift assay of DNA adducts with ER
T1 sequence (P03372 311-547 limits assumed): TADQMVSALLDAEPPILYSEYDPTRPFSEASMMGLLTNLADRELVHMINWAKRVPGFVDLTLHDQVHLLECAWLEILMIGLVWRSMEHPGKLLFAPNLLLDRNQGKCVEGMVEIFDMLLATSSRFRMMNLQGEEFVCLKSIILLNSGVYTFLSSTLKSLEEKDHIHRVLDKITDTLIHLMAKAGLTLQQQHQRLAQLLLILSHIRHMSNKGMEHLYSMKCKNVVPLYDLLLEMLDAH

[2] = test system: self complementary octamer deoxyoligonucleotide; experiment: Reactivity with DNA (piperidine labile sites); type: biochemical
[3] = test system: MDA-MB231 (ER−) breast cancer cells; type: cell-based
rabbit uterine ER = target: T2, rabbit uterine ER (Oryctolagus cuniculus, UniProt G1SML6); experiment: Radiometric competitive binding assay for the ER (RBA); conditions: RBA for estradiol is 100
T2 construct: from tissue; host or cells: rabbit uterus
T2 sequence (G1SML6 1-598): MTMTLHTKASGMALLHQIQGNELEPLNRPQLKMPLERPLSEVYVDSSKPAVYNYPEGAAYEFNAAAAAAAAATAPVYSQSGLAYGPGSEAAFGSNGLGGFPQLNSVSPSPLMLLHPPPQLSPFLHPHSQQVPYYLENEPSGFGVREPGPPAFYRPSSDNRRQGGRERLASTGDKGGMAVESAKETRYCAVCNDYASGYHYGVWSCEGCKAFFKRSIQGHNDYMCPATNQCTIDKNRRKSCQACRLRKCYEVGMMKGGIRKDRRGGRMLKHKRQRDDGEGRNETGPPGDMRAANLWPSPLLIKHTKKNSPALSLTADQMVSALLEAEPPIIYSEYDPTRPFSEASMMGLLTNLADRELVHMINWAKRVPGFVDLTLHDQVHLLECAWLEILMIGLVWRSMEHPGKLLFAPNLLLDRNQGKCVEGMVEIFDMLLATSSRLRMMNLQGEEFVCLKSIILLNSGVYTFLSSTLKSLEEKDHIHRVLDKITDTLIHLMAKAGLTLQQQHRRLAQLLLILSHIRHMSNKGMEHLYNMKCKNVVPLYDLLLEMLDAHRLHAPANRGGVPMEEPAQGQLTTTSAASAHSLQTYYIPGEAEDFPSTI

[4] = test system: MCF-7 (ER+) breast cancer cells; experiment: Toxicity toward MCF-7 breast cancer cells; type: cell-based
[5] = pH 7.4
p45 Skp2 = type: cell-based, human
PARP = type: cell-based, human
p21 (WAF1/Cip1) = type: cell-based, human
p27 (Kip1) = type: cell-based, human
LNCaP cells [6] = type: cell-based, human
LNCaP cells [7] = experiment: Cell cycle analysis by flow cytometry; type: cell-based, human
p70S6K = experiment: Phosphorylation status of p70S6K in LNCaP cells; type: cell-based, human
LNCaP cells [8] = type: cell-based, human; remark: listed apart in the source
c-Myc = c-Myc protein levels in LNCaP cells; type: cell-based, human
LNCaP cells [9] = experiment: DNA fragmentation by agarose gel electrophoresis; type: cell-based, human; conditions: 20 μM, 24 h exposure
Bid = Bid cleavage analysis; type: cell-based, human; conditions: LNCaP cells

For `CC(C)(C)[Si](C)(C)OCCNP(=O)(c1ccccc1)c1ccccc1` [Compound 13], the “complex formation of covalent DNA adducts with ER” value (“complex formation” below) [1] was “form complexes”, the “DNA modification, cleaved by piperidine” value [2] was 79% and the toxicity [3] was “toxicity similar to that of 1”. For the same compound, the “relative binding affinity (RBA) for the ER” value (shortened to “relative binding affinity”) (rabbit uterine ER) was “comparable affinities”, the “differential toxicity MCF-7 (ER+) versus MDA-MB231 (ER−)” value [4] was “greater toxicity toward the ER-positive MCF-7 cells” and the toxicity [4] was “toxicity similar to that of 1”.

With `O=P(NCCO)(c1ccccc1)c1ccccc1` [Compound 12] the logD [5] was “high logD values”, the toxicity [3] was “low toxicity” and the “relative binding affinity” value (rabbit uterine ER) was “comparable affinities”. For the same compound, the toxicity [4] was “low toxicity”.

In the case of `CC12CCC3c4ccc(O)cc4CC(CCCCCCNCCNC(=N)NCCCc4ccc(N(CCCl)CCCl)cc4)C3C1CCC2O` (centres unmarked) [Compound 5], the “complex formation” value [1] is reported as “form complexes; also recorded: virtually all of the modified oligonucleotide formed a slowly migrating band”, the “toxicity at the highest dose” value [3] is reported as “neither compound showed significant toxicity” and the “relative binding affinity” value (rabbit uterine ER) is reported as “low RBAs”. For the same compound, the “toxicity at the highest dose” value [4] was “neither compound showed significant toxicity”.

With `COCCN(CCOC)c1ccc(CCCNC(=O)OCCNCCCCCCC2CC3(C)C(O)CCC3C3CCC4=CC(=O)CCC4=C23)cc1` (stereo not drawn) [11β-dimethoxy] the “levels of Skp2” value (p45 Skp2) was “decreased”, the “cleavage of PARP” value (PARP) was “No cleavage” and the “eventual levels of p21” value (p21 (WAF1/Cip1)) was “recovered to basal levels”. The “initial change in levels of p21” value (p21 (WAF1/Cip1)) was “initially decreased”, the “levels of p27” value (p27 (Kip1)) was “increased” and the apoptotic response (LNCaP cells [6]) was “did not activate an apoptotic response; also recorded: does not induce markers of apoptosis”. The “toxic effect / cell killing” value (LNCaP cells [6]) was “transient toxic effect but does not kill cells”, the “LNCaP cells in G1” value (LNCaP cells [7]; 10 uM for 20 hr, flow cytometry) was over 90% and the cell cycle arrest (LNCaP cells [7]; LNCaP cells) was “halt, albeit transiently, the growth of LNCaP cells in the G1 phase of the cell cycle”. The “effect on p70S6K” value (p70S6K) was “inhibits p70S6K”, the “changes in LNCaP cell shape” value (LNCaP cells [8]) was “slight contraction, which was reversed by 24 h” and the “levels of the c-Myc protein” value (c-Myc) was “causes c-Myc levels to drop”.

With `CC12CCC3c4ccc(O)cc4CC(CCCCCCNC(=O)CCCc4ccc(N(CCCl)CCCl)cc4)C3C1CCC2O` (centres unmarked) [Compound 14] the “DNA modification, cleaved by piperidine” value [2] was 14%, the logD [5] was over 5 and the toxicity [3] was “low toxicity”. For the same compound, the “relative binding affinity” value (rabbit uterine ER) was “low RBAs” and the toxicity [4] was “low toxicity”.

In the case of `O=C(O)CCCc1ccc(N(CCCl)CCCl)cc1` [Chlorambucil, reference compound], the DNA fragmentation (LNCaP cells [9]) is reported as “No changes”, the “levels of Skp2” value (p45 Skp2; LNCaP cells, 20 μM, up to 15 h) is reported as “unaffected” and the “cleavage of PARP” value (PARP; 20 μM, LNCaP cells) is reported as “No cleavage”. For the same compound, the “levels of p21” value (p21 (WAF1/Cip1); LNCaP cells, 20 μM, up to 15 h) was “potent inducer of p21”, the “levels of p27” value (p27 (Kip1); LNCaP cells, 20 μM, up to 15 h) was “without effect” and the apoptotic response (LNCaP cells [6]; LNCaP cells, single agent) was “fails to induce apoptosis”. For the same compound, the “changes in LNCaP cell shape” value (LNCaP cells [8]) was “no effect on cellular shape” and the Bid cleavage (Bid) was “No changes”.

With `CC12CCC3c4ccc(O)cc4CC(CCCCCCNCCOC(=O)NCCCc4ccc(N(CCCl)CCCl)cc4)C3C1CCC2O` (stereo not drawn) [Compound 1, 7α-{N-(2-(N-((N,N-bis-2-chloroethylaminophenyl)propyl)-carbamoyloxy)ethyl)aminohexyl}-3,17β-dihydroxyestra-1,3,5(10)-triene] the “complex formation” value ([1]; gel mobility shift, band eliminated by excess estradiol) was “form complexes; also recorded: greatest affinity for the ER-LBD”, the “relative binding affinity” value (rabbit uterine ER) was “excellent affinity” and the “differential toxicity MCF-7 (ER+) versus MDA-MB231 (ER−)” value ([4]; comparison of the two cell lines) was “significantly more toxic toward MCF-7 cells than MDA-MB231 cells; also recorded: largest differential toxicity”.

With `CC12CCC3c4ccc(O)cc4CC(CCCCCCOC(=O)NCCCc4ccc(N(CCCl)CCCl)cc4)C3C1CCC2O` (centres unmarked) [Compound 9] the “DNA modification, cleaved by piperidine” value [2] was 3%, the logD [5] was over 5 and the toxicity [3] was “low toxicity”. For the same compound, the “relative binding affinity” value (rabbit uterine ER) was “low RBAs” and the toxicity [4] was “low toxicity”.

For `CC12CCC3c4ccc(O)cc4CC(CCCCCCNC(=N)NCCCc4ccc(N(CCCl)CCCl)cc4)C3C1CCC2O` (centres unmarked) [Compound 7], the “complex formation” value [1] was “form complexes”, the “toxicity at the highest dose” value [3] was “neither compound showed significant toxicity” and the “relative binding affinity” value (rabbit uterine ER) was “comparable affinities”. For the same compound, the “toxicity at the highest dose” value [4] was “neither compound showed significant toxicity”.

For `CC12CCC3c4ccc(O)cc4CC(CCCCCCNCCCCc4ccc(N(CCCl)CCCl)cc4)C3C1CCC2O` (centres unmarked) [Compound 15], the “complex formation” value [1] was “form complexes”, the toxicity [3] was “toxicity similar to that of 1” and the “relative binding affinity” value (rabbit uterine ER) was 40. For the same compound, the “differential toxicity MCF-7 (ER+) versus MDA-MB231 (ER−)” value [4] was “greater toxicity toward the ER-positive MCF-7 cells” and the toxicity [4] was “toxicity similar to that of 1”.

— patent publication US20060019936A1 (priority 2004, published 2006)
